Test results as given in publication PMC8213057, “Targeting ALK2: An Open Science Approach to Developing Therapeutics for the Treatment of Diffuse Intrinsic Pontine Glioma” (Journal of Medicinal Chemistry, 2020).

How the values were obtained:
ARAF = target: T1, ARAF (Homo sapiens, UniProt P10398); assay: biochemical; conditions: read-out: % enzyme activity, 1 μM; Run 1, Run 2
T1 sequence (P10398 1-606): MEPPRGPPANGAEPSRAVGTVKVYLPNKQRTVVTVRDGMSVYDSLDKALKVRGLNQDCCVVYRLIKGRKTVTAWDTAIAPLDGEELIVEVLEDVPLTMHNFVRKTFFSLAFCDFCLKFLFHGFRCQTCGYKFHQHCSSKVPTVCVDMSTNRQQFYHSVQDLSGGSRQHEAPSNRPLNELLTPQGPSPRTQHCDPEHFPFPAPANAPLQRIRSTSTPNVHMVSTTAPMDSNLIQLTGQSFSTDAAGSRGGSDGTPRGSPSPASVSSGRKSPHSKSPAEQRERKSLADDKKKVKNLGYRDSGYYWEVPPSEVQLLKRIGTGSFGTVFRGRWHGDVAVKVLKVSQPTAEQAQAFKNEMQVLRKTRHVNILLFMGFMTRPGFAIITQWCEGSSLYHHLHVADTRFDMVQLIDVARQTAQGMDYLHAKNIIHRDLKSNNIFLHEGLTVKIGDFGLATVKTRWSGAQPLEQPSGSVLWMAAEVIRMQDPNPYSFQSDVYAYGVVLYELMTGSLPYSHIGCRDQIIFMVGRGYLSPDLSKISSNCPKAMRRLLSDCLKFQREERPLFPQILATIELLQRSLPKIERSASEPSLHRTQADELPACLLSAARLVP

DYRK2 = target: T2, DYRK2 (Homo sapiens, UniProt Q92630); conditions: 1 μM; Run 1, Run 2
T2 sequence (Q92630 1-601): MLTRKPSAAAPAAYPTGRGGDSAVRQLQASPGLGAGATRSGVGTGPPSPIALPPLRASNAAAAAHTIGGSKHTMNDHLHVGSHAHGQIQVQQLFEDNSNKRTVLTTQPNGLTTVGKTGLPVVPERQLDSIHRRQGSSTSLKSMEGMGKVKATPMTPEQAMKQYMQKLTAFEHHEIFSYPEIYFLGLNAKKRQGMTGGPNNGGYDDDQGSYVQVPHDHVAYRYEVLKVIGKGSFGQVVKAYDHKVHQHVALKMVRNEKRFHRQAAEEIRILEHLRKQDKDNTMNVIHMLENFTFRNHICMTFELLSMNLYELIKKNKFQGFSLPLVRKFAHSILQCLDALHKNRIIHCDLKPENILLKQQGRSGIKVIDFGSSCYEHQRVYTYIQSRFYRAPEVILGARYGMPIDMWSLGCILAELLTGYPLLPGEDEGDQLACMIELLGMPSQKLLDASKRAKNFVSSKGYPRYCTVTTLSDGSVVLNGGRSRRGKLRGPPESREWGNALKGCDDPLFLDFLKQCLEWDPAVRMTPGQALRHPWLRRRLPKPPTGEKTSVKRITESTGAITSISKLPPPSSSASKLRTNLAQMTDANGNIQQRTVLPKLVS

STK32B/YANK2 = STK32B/YANK2 (Homo sapiens, UniProt Q9NY57); conditions: 1 μM; Run 1, Run 2
HCK = HCK (Homo sapiens, UniProt P08631); conditions: 1 μM; Run 1, Run 2
MEKK2 = target: T3, MEKK2 (Homo sapiens, UniProt Q9Y2U5); assay: biochemical; conditions: read-out: % enzyme activity, 1 μM; Run 1, Run 2
T3 sequence (Q9Y2U5 1-619): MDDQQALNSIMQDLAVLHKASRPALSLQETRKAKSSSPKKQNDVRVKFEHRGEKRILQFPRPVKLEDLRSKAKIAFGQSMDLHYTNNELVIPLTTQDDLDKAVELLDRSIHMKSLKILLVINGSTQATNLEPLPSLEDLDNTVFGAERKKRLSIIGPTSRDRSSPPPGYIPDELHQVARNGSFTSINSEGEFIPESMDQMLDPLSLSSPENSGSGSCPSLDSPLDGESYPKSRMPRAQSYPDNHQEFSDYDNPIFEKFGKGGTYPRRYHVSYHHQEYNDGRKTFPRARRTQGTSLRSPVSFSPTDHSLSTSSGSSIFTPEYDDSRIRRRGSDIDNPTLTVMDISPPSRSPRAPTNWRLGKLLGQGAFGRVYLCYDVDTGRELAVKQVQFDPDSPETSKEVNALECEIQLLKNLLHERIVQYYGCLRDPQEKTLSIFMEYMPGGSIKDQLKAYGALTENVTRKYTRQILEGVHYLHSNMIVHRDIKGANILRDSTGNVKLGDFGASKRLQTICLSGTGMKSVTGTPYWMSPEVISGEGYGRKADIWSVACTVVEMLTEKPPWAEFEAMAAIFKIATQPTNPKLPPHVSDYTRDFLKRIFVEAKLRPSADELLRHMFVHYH

CDK8/cyclin C = CDK8/cyclin C (Homo sapiens, UniProt P49336); conditions: 1 μM; Run 1, Run 2
CYP2C8 = target: T4, CYP2C8 (Homo sapiens, UniProt P10632); assay: CYP inhibition assay; type: in vitro ADME; conditions: human liver microsomes
T4 construct: tissue Corning 452117; host or cells: pooled human liver microsomes (UltraPool HLM 150, mixed gender)

PIM1 = PIM1 (Homo sapiens, UniProt P11309); conditions: 1 μM; Run 1, Run 2
NEK6 = NEK6 (Homo sapiens, UniProt Q9HC98); assay: biochemical; conditions: read-out: % enzyme activity, 1 μM; Run 1, Run 2
NEK6, sequence (Q9HC98 whole entry): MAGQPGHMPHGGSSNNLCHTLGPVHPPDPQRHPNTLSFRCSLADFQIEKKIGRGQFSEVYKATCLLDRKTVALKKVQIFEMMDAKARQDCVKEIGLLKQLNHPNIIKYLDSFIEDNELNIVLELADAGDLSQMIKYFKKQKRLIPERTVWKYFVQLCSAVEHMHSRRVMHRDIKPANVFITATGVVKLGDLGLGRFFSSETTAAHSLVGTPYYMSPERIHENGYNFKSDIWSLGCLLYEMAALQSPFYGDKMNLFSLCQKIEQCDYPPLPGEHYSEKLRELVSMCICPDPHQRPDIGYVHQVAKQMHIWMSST

STK32B/YANK2, sequence (Q9NY57 whole entry): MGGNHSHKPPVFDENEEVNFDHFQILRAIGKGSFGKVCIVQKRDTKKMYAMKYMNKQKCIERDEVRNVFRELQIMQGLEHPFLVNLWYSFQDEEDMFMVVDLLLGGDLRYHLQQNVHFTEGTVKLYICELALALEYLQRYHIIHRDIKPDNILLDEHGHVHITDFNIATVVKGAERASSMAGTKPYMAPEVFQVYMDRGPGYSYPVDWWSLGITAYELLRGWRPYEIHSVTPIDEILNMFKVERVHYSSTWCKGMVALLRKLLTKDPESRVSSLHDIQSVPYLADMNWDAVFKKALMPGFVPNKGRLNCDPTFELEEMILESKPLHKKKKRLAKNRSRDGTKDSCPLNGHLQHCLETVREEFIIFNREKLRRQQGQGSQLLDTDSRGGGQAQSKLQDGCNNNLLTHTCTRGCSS
HCK, sequence (P08631 whole entry): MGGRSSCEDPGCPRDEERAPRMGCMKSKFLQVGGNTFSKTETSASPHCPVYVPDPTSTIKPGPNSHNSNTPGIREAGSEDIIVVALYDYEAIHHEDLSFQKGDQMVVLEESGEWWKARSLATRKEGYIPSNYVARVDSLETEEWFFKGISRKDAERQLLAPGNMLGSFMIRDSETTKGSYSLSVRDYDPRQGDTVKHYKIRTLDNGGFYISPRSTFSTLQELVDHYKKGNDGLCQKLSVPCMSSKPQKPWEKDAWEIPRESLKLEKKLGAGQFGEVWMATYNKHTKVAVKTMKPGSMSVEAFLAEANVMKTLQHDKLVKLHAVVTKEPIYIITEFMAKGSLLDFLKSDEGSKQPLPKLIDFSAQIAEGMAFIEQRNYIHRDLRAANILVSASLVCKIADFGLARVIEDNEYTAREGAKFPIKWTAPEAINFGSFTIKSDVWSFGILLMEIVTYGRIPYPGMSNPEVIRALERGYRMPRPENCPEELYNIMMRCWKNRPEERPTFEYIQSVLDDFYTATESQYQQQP
PIM1, sequence (P11309 whole entry): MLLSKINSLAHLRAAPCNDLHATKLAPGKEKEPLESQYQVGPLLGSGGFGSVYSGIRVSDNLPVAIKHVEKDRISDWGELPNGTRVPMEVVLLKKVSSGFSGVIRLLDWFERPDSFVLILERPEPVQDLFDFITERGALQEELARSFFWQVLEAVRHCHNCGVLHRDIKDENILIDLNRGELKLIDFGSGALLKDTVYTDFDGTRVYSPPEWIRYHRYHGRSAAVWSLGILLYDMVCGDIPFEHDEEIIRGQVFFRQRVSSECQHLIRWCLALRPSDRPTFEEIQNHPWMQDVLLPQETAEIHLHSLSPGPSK
T4 sequence (P10632 whole entry): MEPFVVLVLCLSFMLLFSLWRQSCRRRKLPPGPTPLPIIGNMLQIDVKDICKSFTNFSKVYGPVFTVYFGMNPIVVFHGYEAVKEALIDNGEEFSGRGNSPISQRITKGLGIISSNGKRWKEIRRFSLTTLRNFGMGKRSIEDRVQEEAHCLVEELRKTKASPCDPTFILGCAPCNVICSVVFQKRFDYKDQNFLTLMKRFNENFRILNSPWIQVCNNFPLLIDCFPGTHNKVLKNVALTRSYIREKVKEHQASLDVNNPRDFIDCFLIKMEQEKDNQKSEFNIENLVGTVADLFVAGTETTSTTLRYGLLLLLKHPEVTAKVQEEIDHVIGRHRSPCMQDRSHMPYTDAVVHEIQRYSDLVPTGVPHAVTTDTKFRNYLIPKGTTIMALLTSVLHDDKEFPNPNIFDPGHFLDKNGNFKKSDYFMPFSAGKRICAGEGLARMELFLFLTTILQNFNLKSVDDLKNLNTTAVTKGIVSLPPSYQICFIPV
CDK8/cyclin C, sequence (P49336 whole entry): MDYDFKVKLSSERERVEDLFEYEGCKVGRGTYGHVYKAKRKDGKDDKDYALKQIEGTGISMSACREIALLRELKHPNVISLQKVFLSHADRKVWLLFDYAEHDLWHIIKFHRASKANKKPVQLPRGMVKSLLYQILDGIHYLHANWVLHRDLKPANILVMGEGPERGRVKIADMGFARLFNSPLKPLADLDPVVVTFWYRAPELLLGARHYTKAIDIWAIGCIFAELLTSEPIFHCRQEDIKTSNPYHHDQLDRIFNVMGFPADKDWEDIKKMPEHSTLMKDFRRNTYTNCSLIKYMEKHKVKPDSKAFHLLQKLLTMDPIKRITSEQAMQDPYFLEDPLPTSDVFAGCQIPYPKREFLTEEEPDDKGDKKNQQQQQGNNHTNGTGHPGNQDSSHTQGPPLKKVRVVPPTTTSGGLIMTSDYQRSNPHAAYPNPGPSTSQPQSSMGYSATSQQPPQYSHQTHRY
CDK8/cyclin C, sequence (P24863 whole entry partner): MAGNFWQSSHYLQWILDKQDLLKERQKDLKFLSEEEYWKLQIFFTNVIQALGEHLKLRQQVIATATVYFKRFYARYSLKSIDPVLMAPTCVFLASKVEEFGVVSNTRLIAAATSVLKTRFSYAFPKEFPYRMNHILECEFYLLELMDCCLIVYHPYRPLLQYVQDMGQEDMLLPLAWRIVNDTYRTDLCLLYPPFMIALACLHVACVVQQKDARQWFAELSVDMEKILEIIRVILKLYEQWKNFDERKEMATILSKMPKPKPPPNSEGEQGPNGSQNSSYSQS

| SMILES | remaining activity at 1 µM (ARAF) | % enzyme activity (DYRK2) | % enzyme activity (STK32B/YANK2) | % enzyme activity (HCK) | remaining activity at 1 µM (MEKK2) | % enzyme activity (CDK8/cyclin C) | IC50 (CYP2C8) | % enzyme activity (PIM1) | remaining activity at 1 µM (NEK6) |
| --- | --- | --- | --- | --- | --- | --- | --- | --- | --- |
| COc1cc(-c2cncc(-c3ccc(N4CCN(C)CC4)cc3)c2C)cc(F)c1C(N)=O [Compound 26a, 2-Fluoro-6-methoxy-4-(4-methyl-5-(4-(4-methylpiperazin-1-yl)phenyl)pyridin-3-yl)benzamide] | 29.3% | 95.06% | 87.20% | 91.96% | 95% | 83.64% | > 50 µM | 97.92% | 99.3% |
| COc1cc(-c2cncc(-c3ccc(N4C[C@@H](C)N(C)[C@@H](C)C4)cc3)c2C)cc(F)c1C(N)=O [Compound 26c, 2-Fluoro-6-methoxy-4-(4-methyl-5-(4-((3R,5S)-3,4,5-trimethylpiperazin-1-yl)phenyl)pyridin-3-yl)benzamide] | 48.1% | 98.44% | 94.20% | 88.06% | 98.8% | 92.05% | > 50 µM | 92.25% | 104% |
